Literature values, collected in patent US20240130675A1, “Methods for Treating Autism Spectrum Disorder” (The General Hospital Corporation, priority 2021, published 2024).
Structures can show the parent of a compound that is named as a salt.

Tests used:
ASD symptoms [1] = settings: 5-19 year-olds, four weeks; only reflected in CGI, not in ABC-CV; cited from earlier work
youth with ASD = settings: cited from earlier work
ASD children = settings: cited from earlier work
ASD = settings: in vivo; cited from earlier work
[2] = system: older adolescents and young adults with ASDs; settings: cited from earlier work
ASD symptoms [3] = settings: RCT; cited from earlier work
autism = settings: RUPP Autism Network study; cited from earlier work

**Q.** With `NC12CC3CC(CC(C3)C1)C2` [amantadine hydrochloride] as the molecule, how does the “ASD symptoms vs placebo” value (ASD symptoms [1]) read?
**A.** improvement in ASD symptoms

**Q.** With `CC(=O)N[C@@H](CS)C(=O)O` [NAC, N-Acetylcysteine] as the molecule, how does the Social impairment (youth with ASD) read?
**A.** no significant impact on social impairment

**Q.** What about the “ABC irritability subscale score vs placebo” value (ASD children) of the same molecule?
**A.** significant improvement

**Q.** For `N[C@@H]1CONC1=O` [D-Cycloserine], which “Social Responsiveness Scale and Aberrant Behavior Checklist” value (ASD) is on record?
**A.** statistically and clinically significant improvement

**Q.** What about the “Stereotypic symptoms, Aberrant Behavior Checklist subscale 3” value [2] of the same molecule?
**A.** improved stereotypic symptoms

**Q.** Which “Improvements vs placebo on Autism Behavior Checklist, Aberrant Behavior Checklist, Vineland, PL-ADOS, CARS” value (ASD symptoms [3]) does the source give for `Nc1nnc(-c2cccc(Cl)c2Cl)c(N)n1` [lamotrigine] here?
**A.** no significant differences in improvements

**Q.** With `Cc1nc2n(c(=O)c1CCN1CCC(c3noc4cc(F)ccc34)CC1)CCCC2` [risperidone] as the molecule, how does the “Response rate, treatment group” value (autism) read?
**A.** 69.4%
